Where “and” joins values, the source holds several entries; their conditions need not be identical. Equal entries are not always repeated.
Columns and labels:
[1] = system: protein concentration in the aqueous humor; experiment: Protein measurement in aqueous humor; type: in vivo, Rabbit; settings: for Protein in aqueous humor at the second paracentesis, Mean: group mean; for Protein in aqueous humor at the second paracentesis: individual eye sample, listed as BOL
Experimental: Each rabbit was placed in a restraint device and tagged with the alphanumeric code. The formulations were instilled (50 μl) into the conjunctival sac of both eyes 180, 120, 90 and 30 min before the first paracentesis; then 15, 30, 90 min after the first paracentesis. To perform the first paracentesis the animals were anaesthetized by intravenous injection of 5 mg/kg Zoletil® (Virbac; 2.5 mg/kg tiletamine HCl and 2.5 mg/kg zolazepam HCl) and one drop of local anesthetic (Novesina®, Novartis) was administered to the eye. Anterior chamber paracentesis was performed with a 26 G needle attached to a tuberculin syringe; the needle was introduced into the anterior chamber through the cornea, taking care not to damage the tissues. Two hours after the first paracentesis, the animals were sacrificed with 0.4 ml Tanax® (Intervet International B.V.) and the second paracentesis was performed. About 100 μl of aqueous humor were removed at the second paracentesis. Aqueous humor was immediately split in four aliquots and stored at −80° C. until analysis. Then both eyes were enucleated and the iris-ciliary body was carefully excised, placed in polypropylene tubes, and stored at −80° C. until analysis.
For protein concentration determination in the aqueous humor we used the Protein Quantification Kit (Fluka; Cat. No. 77371; Lot. No. 1303129). Five microliters of aqueous humor were diluted to 100 μl with water. Twenty microliters of samples and of standards were load into a 96-well plate and recorded in a plate layout. Samples were treated following the assay procedure described in the kit. A microplate reader (GDV, Italy; model DV 990 B/V6) set at 670 nm was used for making the calibration and analyzing the samples.

caspase-3 = experiment: Caspase-3 activation in human eosinophils (Western blotting); type: cell-based; settings: 24 h, 0.1% FBS; BOL-303242-X 1-1000 nM, dexamethasone 1000 nM
Experimental: Human eosinophils were pelleted and resuspended in 100 μl of CER I buffer (NE-PER™ Extraction reagent; Pierce). After 10 min incubation on ice, 5.5 μl of CER II buffer was added and the suspension was resuspended by vortexing, incubated on ice for 1 min and resuspended. The cytoplasmic fraction was separated by centrifugation at 16,000 g for 5 min. The protein content was quantified using a BCA protein assay (Pierce). The proteins of the cytoplasmic extract (50 μg) were denatured at 95° C. for 3 min, then loaded and separated by 15% sodium dodecyl sulfate-polyacrylamide gel electrophoresis (SDS-PAGE). We used MagicMark™ XP Western Standard as a molecular weight standard.
Proteins were transferred to Protran™ nitrocellulose membranes, which were blocked with 5% non-fat milk in TBS (10 mM Tris-HCl, pH 8, containing 150 mM NaCl) plus 0.1% Tween 20 for 1 h at room temperature (25° C.). The blots were probed overnight at 4° C. in TBS containing 0.1% Tween 20, 5% non-fat milk and antibodies with dilutions of 1:1000 for caspase-3 monoclonal antibody or 1:5000 for β-actin antibody (used as a loading control for cytoplasmic cell lysates). The former detects endogenous levels of procaspase-3 (around 32 kDa; p32) and its large subunit cleavage product of approximately 17 kDa (p17). The membranes were incubated with peroxidase-conjugated secondary antibodies at a dilution of 1:8000. […]

eosinophil peroxidase = experiment: Eosinophil peroxidase assay in guinea pig conjunctiva; type: in vivo; settings: 0.4% eye drops; 24 h after antigen challenge
Experimental: Male Dunkin-Hartley guinea pigs were actively immunized by i.p. injection of 200 μg OVA in 2 ml saline with 40 mg aluminum hydroxide (positive control) or saline alone (negative control), as previously reported. […] Negative controls received saline alone.
Conjunctival clinical symptoms were rated blind on both eyes using the following scale: 0, no symptoms; 1, slight conjunctival redness with or without tears; 2, mild conjunctival redness with tears and mild chemosis; 3, mild conjunctival redness with tears and moderate chemosis; 4, severe conjunctival redness with tears and partial lid eversion; 5, severe conjunctival redness with tears and lids more than half closed. […] The number of eosinophils in each field was counted under light microscopy (×500 magnification). In the other sample eosinophil peroxidase activity was measured.
Eosinophil peroxidase was assayed as previously reported in conjunctival samples obtained as above described. […] Absorbance was measured using a spectrophotometer (JASCO V-530, Jasco, UK) at 490 nm. […] Eosinophil peroxidase activity was measured according to the method of Strath et al., which is based on the oxidation of o-phenylenediamine by eosinophil peroxidase in the presence of hydrogen peroxide. One unit corresponds to 1 mmol of hydrogen peroxide decomposed for […], and the results were expressed as eosinophil peroxidase levels (mU of enzyme/mg wet tissue).

Structure (SMILES): Cc1ccc2c(NC[C@](O)(CC(C)(C)c3cc(F)cc4c3OCC4)C(F)(F)F)cccc2n1 [BOL-303242-X, (R)-1,1,1-Trifluoro-4-(5-fluoro-2,3-dihydrobenzofuran-7-yl)-4-methyl-2-{[(2-methyl-5-quinolyl)amino]methyl}pentan-2-ol]
- Protein in aqueous humor at the second paracentesis, Mean ([1]; 0.1% topical): 33.667 mg/mL
- Protein in aqueous humor at the second paracentesis ([1]; 0.1% topical): 34.87 mg/mL and 34.41 mg/mL and 31.14 mg/mL and 22.82 mg/mL and 29.46 mg/mL and 31.69 mg/mL and 35.70 mg/mL and 49.25 mg/mL
- Protein in aqueous humor at the second paracentesis, Mean ([1]; 0.5% topical): 28.844 mg/mL
- Protein in aqueous humor at the second paracentesis ([1]; 0.5% topical): 33.98 mg/mL and 33.65 mg/mL and 19.99 mg/mL and 27.11 mg/mL and 19.72 mg/mL and 36.35 mg/mL and 27.71 mg/mL and 32.24 mg/mL
- Protein in aqueous humor, statistical comparison with CTR ([1]; 0.5% topical, p<0.05): statistical significance
- Protein in aqueous humor at the second paracentesis, Mean ([1]; 1% topical): 21.435 mg/mL
- Protein in aqueous humor at the second paracentesis ([1]; 1% topical): 20.99 mg/mL and 21.48 mg/mL and 15.11 mg/mL and 20.28 mg/mL and 20.94 mg/mL and 21.89 mg/mL and 20.03 mg/mL and 30.76 mg/mL
- Protein in aqueous humor, statistical comparison with CTR ([1]; 1% topical, p<0.001): statistical significance
- Caspase-3 p17 subunit level (Western blot) (caspase-3): marked, concentration-dependent increase of the p17 subunit
- Conjunctival eosinophil peroxidase activity (eosinophil peroxidase): noteworthy reduction
